The results in this text go back to patent publication US20220041641A1, “QUATERNARY AMMONIUM SALTS AS INHIBITORS OF TRIMETHYLAMINE PRODUCTION” (Senda Biosciences, Inc., priority 2018, published 2022).

In data set [1] the target is CutC from Proteus mirabilis (Proteus mirabilis, UniProt B4EYG1). Put plainly: Cell-based assay for TMA production from a native producer (P. mirabilis). Conditions: d9-TMA from 1 mM d9-choline, 5 h, 37° C.; value 10 given when no fit or % TMA remaining at 10 μM higher than 15%; read-out: Average IC50 Whole cell P. mirabilis. The essentials: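 Overnight anaerobic cultures of P. mirabilis or C. sporogenes, grown in BHI with 1 mM choline, were diluted and given 1 mM (trimethyl-d9)-choline plus compound at 10 μM final. After 5 h at 37° C., d9-TMA was quantified by LCMS.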

Data set [2] is described as follows: Caco-2 permeability assay. The class given is in vitro ADME. Conditions: human. On the procedure:
Preparation of Caco-2 Cells: 50 μL and 25 mL of cell culture medium were added to each well of the Transwell insert and reservoir, respectively. The HTS transwell plates were incubated at 37° C., 5% CO2 for 1 hour before cell seeding. […] Cell culture medium was replaced every other day, beginning no later than 24 hours after initial plating.
Assessment of Cell Monolayer Integrity: Medium was removed from the reservoir and each Transwell insert and replaced with prewarmed fresh culture medium. Transepithelial electrical resistance (TEER) across the monolayer was measured using Millicell Epithelial Volt-Ohm measuring system (Millipore, USA). The Plate was returned to the incubator once the measurement was done. The TEER value was calculated according to the following equation: […]
Preparation of Solutions: 2 mM stock solutions in DMSO of control compounds were prepared and diluted with HBSS (10 mM HEPES, pH 7.4) to get 10 μM working solution. 0.2 mM stock solutions of test compounds in DMSO were prepared and diluted with HBSS (10 mM HEPES, pH 7.4 with 0.5% BSA) to get 1 μM working solution. Metoprolol, erythromycin and cimetidine were used as control compounds.
The Caco-2 plate was removed from the incubator. The monolayer was washed twice with pre-warmed HBSS (10 mM HEPES, pH 7.4). The plate was incubated at 37° C. for 30 minutes. To determine the rate of drug transport in the apical to basolateral direction, 125 μL of the working solution was added to the Transwell insert (apical compartment). A 50 μL sample was transferred immediately from the apical compartment to 200 μL of acetonitrile containing IS (100 nM alprazolam, 200 nM Caffeine and 100 nM tolbutamide) in a new 96-well plate as the initial donor sample (A-B) and it was vortexed at 1000 rpm for 10 minutes. The wells in the receiver plate (basolateral compartment) were filled with 235 μL of transport buffer. To determine the rate of drug transport in the basolateral to apical direction, 285 μL of the working solution were added to the receiver plate wells (basolateral compartment). A 50 μL sample was transferred immediately from the basolateral compartment to 200 μL of acetonitrile containing IS (100 nM alprazolam, 200 nM Caffeine and 100 nM tolbutamide) in a new 96-well plate as the initial donor sample (B-A) and it was vortexed at 1000 rpm for 10 minutes. The Transwell insert (apical compartment) was filled with 75 μL of transport buffer. The apical to basolateral direction and the basolateral to apical direction need to be done at the same time. The plates were incubated at 37° C. for 2 hours. At the end of the incubation, 50 μL samples from donor sides (apical compartment for Ap→Bl flux, and basolateral compartment for B1→Ap) and receiver sides (basolateral compartment for Ap→Bl flux, and apical compartment for B1→Ap) were transferred to wells of a new 96-well plate, followed by the addition of 4 volume of acetonitrile containing IS (100 nM alprazolam, 200 nM Caffeine and 100 nM tolbutamide). Samples were vortexed for 10 minutes, 50 μL samples were transferred to wells of a new 96-well plate, followed by the addition of 50 μL Hepes and 200 μL IS. All samples were vortexed for 10 minutes, and then centrifuged at 3,220 g for 40 minutes. An aliquot of 150 μL of the supernatant was mixed with an appropriate volume of ultra-pure water before LC-MS/MS analysis.
Apparent permeability (Papp) can be calculated for drug transport assays using the following equation: […]
Papp is apparent permeability (cm/s×10^−6);
Papp (B-A) indicates the apparent permeability coefficient in basolateral to apical direction, and
Papp (A-B) indicates the apparent permeability coefficient in apical to basolateral direction.

The target of data set [3] is CutC from Clostridium sporogenes (Clostridium sporogenes, UniProt A0AAE4Z0A8). Put plainly: Cell-based assay for TMA production from a native producer (C. sporogenes). Conditions: read-out: IC50 Whole cell C. sporogenes; d9-TMA from 1 mM d9-choline, 5 h, 37° C.; run once; value 10 given when no fit or % TMA remaining at 10 μM higher than 15%. From the text: In each bacterium, CutC was modified into its activated form by a cognate activating enzyme, CutD (protein EDU36696.1 for C. sporogenes; protein WP_004249185.1 for P. mirabilis). […] Trimethylamine may subsequently be converted by human enzymes such as flavin monooxygenase 3 to trimethylamine N-oxide, which might be associated with negative health consequences in humans.
A compound's ability to inhibit CutC from Proteus mirabilis and C. sporogenes from converting choline into trimethylamine was tested in cells as described. A BHI blood plate was inoculated with a frozen stock of Proteus mirabilis or Clostridium sporogenes under anaerobic conditions. A single colony was isolated from the plate and inoculated into 5 mL BHI supplemented with 1 mM choline under anaerobic conditions. The liquid cultures were grown overnight at 37° C.
To prepare each sample, 300 μL of the saturated culture was then inoculated into a 30 mL dilution blank under anaerobic conditions. 1 mM (trimethyl-d9)-choline and a sufficient amount of a compound to obtain a final concentration of 10 μM were added to the inoculated dilution blank. […] The mixture was incubated at 37° C. for 5 h. […] After centrifugation, the samples were analyzed by LCMS to determine the amount of d9-TMA produced.

The next data set deals with CutC/D enzyme. The data set can be described thus: Acute mouse model (plasma TMAO on choline diet). The class given is in vivo, male C57BL/6 mice. The protocol:
The following acute mouse model may be used to determine inhibition of the CutC/D enzyme and thus the inhibition of the formation of trimethylamine (TMA) from choline.
On day 1, male C57BL/6 mice were given a chemically defined diet (Tekland Global Rodent Diet 2018) containing 1.0% choline (g/g) for the duration of the experiment. Concurrently on day 1, mice were orally gavaged with 200 μL of compounds of interest (formulated in water). Mice were orally gavaged with the compounds and vehicle control again on day 2 and day 3 at a fixed time. Twenty hours after the last gavage, mice were sacrificed, and plasma was collected and prepared for detection of trimethylamine-N-oxide (TMAO) via liquid chromatography with on-line tandem mass spectrometry (LC-MS/MS). Food consumption and mouse weight were measured each day.
Plasma samples were prepared for LCMS as follows: An aliquot of 20 μL plasma sample was protein precipitated with 200 μL internal standard solution (100 ng/mL Labetalol & 100 ng/mL Tolbutamide & 100 ng/mL Diclofenac in acetonitrile, the mixture was vortex-mixed and centrifuged at 4000 rpm for 15 min, 4° C. An aliquot of 100 μL supernatant was transferred to the sample plate for LCMS injection. 1 μL of sample was injected onto an LC column for TMAO LCMS analysis.
Concentrations of TMAO were determined with a calibration curve ranging 0.05-100 μM for d9-TMAO in control plasma.

Where [4] appears, read: pH 7.4, Caco-2, apical to basolateral, 1 μM, 2 hours, 37° C., read-out: Papp A-B.
The mark [5] stands for this setting: pH 7.4, Caco-2, basolateral to apical, 1 μM, 2 hours, 37° C., read-out: Papp B-A.

Where “and” joins values, the source holds several entries; their conditions need not be identical. Equal entries are not always repeated. Where two headings read alike, the source gives them in different places.

Sequence of CutC from Proteus mirabilis (B4EYG1 entry or part of it): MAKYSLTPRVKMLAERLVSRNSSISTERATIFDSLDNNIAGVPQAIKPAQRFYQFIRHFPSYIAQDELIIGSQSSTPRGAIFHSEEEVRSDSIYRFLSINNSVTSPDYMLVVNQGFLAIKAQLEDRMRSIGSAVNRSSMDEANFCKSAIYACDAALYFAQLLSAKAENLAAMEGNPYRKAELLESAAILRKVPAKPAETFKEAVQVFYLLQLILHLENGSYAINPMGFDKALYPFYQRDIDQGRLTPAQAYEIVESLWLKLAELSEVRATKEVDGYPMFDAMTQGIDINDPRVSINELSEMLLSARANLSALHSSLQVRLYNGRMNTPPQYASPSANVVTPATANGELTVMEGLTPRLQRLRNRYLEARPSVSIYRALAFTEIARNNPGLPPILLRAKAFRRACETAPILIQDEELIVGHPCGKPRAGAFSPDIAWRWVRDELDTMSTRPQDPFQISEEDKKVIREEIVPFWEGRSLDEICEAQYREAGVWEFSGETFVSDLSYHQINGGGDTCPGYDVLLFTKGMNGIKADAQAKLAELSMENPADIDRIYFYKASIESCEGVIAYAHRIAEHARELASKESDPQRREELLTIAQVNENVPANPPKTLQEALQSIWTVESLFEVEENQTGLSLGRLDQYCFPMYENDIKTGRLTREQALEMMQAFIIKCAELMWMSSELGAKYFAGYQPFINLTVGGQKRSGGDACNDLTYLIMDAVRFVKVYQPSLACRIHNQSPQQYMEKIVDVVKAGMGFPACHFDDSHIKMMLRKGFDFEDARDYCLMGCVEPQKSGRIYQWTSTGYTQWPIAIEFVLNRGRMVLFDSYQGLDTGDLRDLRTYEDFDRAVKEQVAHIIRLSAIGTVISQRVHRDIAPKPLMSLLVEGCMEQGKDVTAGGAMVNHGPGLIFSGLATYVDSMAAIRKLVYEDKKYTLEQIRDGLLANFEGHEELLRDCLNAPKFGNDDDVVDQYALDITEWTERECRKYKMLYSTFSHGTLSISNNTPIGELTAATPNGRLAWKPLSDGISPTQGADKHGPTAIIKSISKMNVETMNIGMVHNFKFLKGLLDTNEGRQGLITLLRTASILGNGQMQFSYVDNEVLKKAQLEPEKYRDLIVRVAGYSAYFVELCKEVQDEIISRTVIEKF
Sequence of CutC from Proteus mirabilis (B4EYG0 entry or part of it, further chain): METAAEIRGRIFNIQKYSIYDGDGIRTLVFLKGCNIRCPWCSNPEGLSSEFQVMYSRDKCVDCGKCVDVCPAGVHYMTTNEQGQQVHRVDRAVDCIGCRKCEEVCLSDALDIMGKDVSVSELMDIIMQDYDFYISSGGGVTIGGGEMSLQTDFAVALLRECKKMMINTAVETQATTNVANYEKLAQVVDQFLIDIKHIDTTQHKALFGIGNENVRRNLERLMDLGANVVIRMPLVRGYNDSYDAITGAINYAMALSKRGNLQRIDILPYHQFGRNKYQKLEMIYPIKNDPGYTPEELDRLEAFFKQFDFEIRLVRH
Sequence of CutC from Clostridium sporogenes (A0ABD6RTF0 entry or part of it): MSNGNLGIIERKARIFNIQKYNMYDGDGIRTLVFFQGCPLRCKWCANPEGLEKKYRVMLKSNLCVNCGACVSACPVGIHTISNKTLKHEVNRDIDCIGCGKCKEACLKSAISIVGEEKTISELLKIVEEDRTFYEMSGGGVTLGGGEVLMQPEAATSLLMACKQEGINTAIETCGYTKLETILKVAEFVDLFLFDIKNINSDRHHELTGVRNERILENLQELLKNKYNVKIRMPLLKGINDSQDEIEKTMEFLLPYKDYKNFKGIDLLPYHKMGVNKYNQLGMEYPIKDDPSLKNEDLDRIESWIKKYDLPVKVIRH
Sequence of CutC from Clostridium sporogenes (A0AAE4Z0A8 entry or part of it): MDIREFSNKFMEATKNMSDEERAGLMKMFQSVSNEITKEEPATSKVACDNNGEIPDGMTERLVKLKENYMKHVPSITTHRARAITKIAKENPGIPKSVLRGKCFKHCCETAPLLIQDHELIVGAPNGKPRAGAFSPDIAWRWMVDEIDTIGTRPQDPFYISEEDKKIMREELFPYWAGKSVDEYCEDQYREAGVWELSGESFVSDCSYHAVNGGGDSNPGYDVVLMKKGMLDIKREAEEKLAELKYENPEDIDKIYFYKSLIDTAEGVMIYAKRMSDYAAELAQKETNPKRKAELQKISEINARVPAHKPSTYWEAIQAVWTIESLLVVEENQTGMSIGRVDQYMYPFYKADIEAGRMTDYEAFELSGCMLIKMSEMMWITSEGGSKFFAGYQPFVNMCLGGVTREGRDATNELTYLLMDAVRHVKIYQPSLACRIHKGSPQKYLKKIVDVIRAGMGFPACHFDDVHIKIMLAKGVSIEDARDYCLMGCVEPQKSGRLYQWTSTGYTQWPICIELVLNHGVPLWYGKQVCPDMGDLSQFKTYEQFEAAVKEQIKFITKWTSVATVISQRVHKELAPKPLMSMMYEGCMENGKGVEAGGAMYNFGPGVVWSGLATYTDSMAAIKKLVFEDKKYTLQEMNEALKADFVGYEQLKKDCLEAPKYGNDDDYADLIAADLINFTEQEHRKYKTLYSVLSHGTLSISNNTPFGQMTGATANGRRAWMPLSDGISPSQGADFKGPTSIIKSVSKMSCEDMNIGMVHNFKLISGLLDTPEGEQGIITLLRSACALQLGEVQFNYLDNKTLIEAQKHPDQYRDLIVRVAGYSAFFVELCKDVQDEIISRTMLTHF

Regarding `C#CC[N+](C)(CF)CCO[C@@H]1O[C@H](COC(C)=O)[C@@H](OC(C)=O)[C@H](OC(C)=O)[C@H]1OC(C)=O` (stereo partly drawn) [Compound 77, (fluoromethyl)(methyl)(prop-2-yn-1-yl)(2-{[(2R,3R,4S,5R,6R)-3,4,5-tris(acetyloxy)-6-[(acetyloxy)methyl]oxan-2-yl]oxy}ethyl)azanium], in data set [1], the half-inhibitory concentration (IC50) was no less than 10000 nM. In data set [2] (setting [4]), the Papp A→B at 2 h, 1 µM amounted to 0.218 ×10⁻⁶ cm/s. The Papp B→A at 2 h, 1 µM in data set [2] (setting [5]) turned out to be 0.337 ×10⁻⁶ cm/s.

For the molecule `C[N+](C)(CCO)CC1CC1.[Br-]` [Compound 107, N-(cyclopropylmethyl)-2-hydroxy-N,N-dimethylethan-1-aminium Bromide], the half-maximal inhibitory concentration (IC50) in data set [1] and in data set [3] was no less than 10000 nM each time. For the same molecule, the Papp A→B at 2 h, 1 µM in data set [2] (setting [4]) turned out to be 26.8 ×10⁻⁶ cm/s. Further, the Papp B→A at 2 h, 1 µM in data set [2] (setting [5]) came to 31.1 ×10⁻⁶ cm/s.

For `C[N+]1(CF)CCC[C@H]1CO.[I-]` (stereo partly drawn) [Compound 109, (2S)-1-(fluoromethyl)-2-(hydroxymethyl)-1-methylpyrrolidin-1-ium iodide], the IC50 in data set [1] was 620 nM. In addition, the “% change from vehicle control + choline diet” value (shortened to “% change”) with CutC/D enzyme (Table 4g, 116 mg/kg oral gavage days 1-3) was −90%. In the data set on CutC/D enzyme (Table 4g, 116 mg/kg oral gavage days 1-3, plasma 20 h after last gavage), the “Mean plasma TMAO” value came out at 2.71 µM. For the same molecule, in data set [3], the half-maximal inhibitory concentration (IC50) was 420 nM. In data set [2] (Caco-2, pH 7.4), this molecule gave a Papp A→B at 2 h, 1 µM of 0.6 ×10⁻⁶ cm/s and a Papp B→A at 2 h, 1 µM of 0.5 ×10⁻⁶ cm/s.

For `C[N+](C)(CCO)C1CC1.[I-]` [Compound 111, N-(2-hydroxyethyl)-N,N-dimethylcyclopropanaminium Iodide], the IC50 in data set [1] was 140 nM and 270 nM. Further, the IC50 in data set [3] turned out to be 220 nM. In data set [2] (Caco-2, pH 7.4), the apparent permeability from apical to basolateral (Papp A→B) at 2 h, 1 µM worked out at 0.8 ×10⁻⁶ cm/s and the Papp B→A at 2 h, 1 µM turned out to be 0.8 ×10⁻⁶ cm/s.

For `C#CC[N+]1(C)CCCN1.[I-]` (stereo not drawn) [Compound 125, 1-methyl-1-(prop-2-yn-1-yl)pyrazolidin-1-ium Iodide], in data set [1], the IC50 is 190 nM. The “% change” value is −6% in the data set on CutC/D enzyme (Table 4g, 9.8 mg/kg oral gavage days 1-3) and 18% with CutC/D enzyme (Table 4g, 97.7 mg/kg oral gavage days 1-3). For the same molecule, the “Mean plasma TMAO” value in the data set with CutC/D enzyme (Table 4g, 9.8 mg/kg oral gavage days 1-3, plasma 20 h after last gavage) came to 26.2 µM; with CutC/D enzyme (Table 4g, 97.7 mg/kg oral gavage days 1-3, plasma 20 h after last gavage) it was 32.8 µM. This molecule gave a Papp A→B at 2 h, 1 µM in data set [2] (Caco-2, pH 7.4) of 0.466 ×10⁻⁶ cm/s. In data set [2] (Caco-2, pH 7.4), the Papp B→A at 2 h, 1 µM worked out at 0.482 ×10⁻⁶ cm/s.

As for `C#CC[N+](C)(C)CCO.[Br-]` [Compound J60, N-(2-hydroxyethyl)-N,N-dimethylprop-2-yn-1-aminium Iodide], the “% change” value with CutC/D enzyme (Table 4a, 10 mg/kg oral gavage days 1-3) was −28.46%; with CutC/D enzyme (Table 4a, 33 mg/kg oral gavage days 1-3), −60.39%; in the data set with CutC/D enzyme (Table 4a, 100 mg/kg oral gavage days 1-3) it was −87.29%; in the data set on CutC/D enzyme (Table 4c, 100 mg/kg oral gavage days 1-3), −74.22%; in the data set on CutC/D enzyme (Table 4e, 100 mg/kg oral gavage days 1-3), −86%; in the data set on CutC/D enzyme (Table 4f, 100 mg/kg oral gavage days 1-3), −81%. Also, the “% change” value with CutC/D enzyme (Table 4g, 100 mg/kg oral gavage days 1-3) was −53%; with CutC/D enzyme (Table 4h, 100 mg/kg oral gavage days 1-3), −80%; in the data set on CutC/D enzyme (Table 4d, 100 mg/kg oral gavage days 1-3), −68%. In addition, the “Mean plasma TMAO” value in the data set on CutC/D enzyme (Table 4a, 10 mg/kg oral gavage days 1-3, plasma 20 h after last gavage) was 31.06 µM; in the data set on CutC/D enzyme (Table 4a, 33 mg/kg oral gavage days 1-3, plasma 20 h after last gavage), 17.20 µM; in the data set with CutC/D enzyme (Table 4a, 100 mg/kg oral gavage days 1-3, plasma 20 h after last gavage), 5.52 µM; in the data set on CutC/D enzyme (Table 4b, 10 mg/kg oral gavage days 1-3, plasma 20 h after last gavage, 10 mg/kg) it was 27.4 µM and 24.7 µM; in the data set with CutC/D enzyme (Table 4c, 100 mg/kg oral gavage days 1-3, plasma 20 h after last gavage), 5.41 µM; with CutC/D enzyme (Table 4e, 100 mg/kg oral gavage days 1-3, plasma 20 h after last gavage) it was 3.81 µM. The “Mean plasma TMAO” value was 6.20 µM with CutC/D enzyme (Table 4f, 100 mg/kg oral gavage days 1-3, plasma 20 h after last gavage); 13.1 µM with CutC/D enzyme (Table 4g, 100 mg/kg oral gavage days 1-3, plasma 20 h after last gavage); 8.72 µM in the data set on CutC/D enzyme (Table 4h, 100 mg/kg oral gavage days 1-3, plasma 20 h after last gavage); 6.00 µM in the data set on CutC/D enzyme (Table 4d, 100 mg/kg oral gavage days 1-3, plasma 20 h after last gavage). The Papp A→B at 2 h, 1 µM in data set [2] (setting [4]) turned out to be 11.1 ×10⁻⁶ cm/s. Further, in data set [2] (setting [5]), the Papp B→A at 2 h, 1 µM was found to be 6.23 ×10⁻⁶ cm/s.
